Data on six compounds can be found in patent US11768205B2, “Methods and materials for identifying and treating cancers having elevated levels of phosphorylated ubiquitin” (Mayo Foundation for Medical Education and Research, priority 2017, dated 2023).

Assay [1] has as its system MDA-MB-468 cells. Description: Pulse-chase measurement of protein degradation (35S-Met). The class given is cell-based, human. As for the experimental part:
FIG. 3. EGFR enhances proteasomal degradation and promotes K48-linked ubiquitin conjugates. (A). MDA-MB-468 cells were serum starved for 24 hours and labeled with ^35S-Met for 24 hours. […] The rate of protein degradation was shown as the fraction of radiolabelled protein remaining over time. Data were mean±SD of three independent experiments. (**: p<0.01, two-way ANOVA test). (B and C). MDA-MB-468 cells were treated as in (A), except that 20 nM bortezomib (B) or 10 μM chloroquine (C) was present in the chase media. Data were mean±SD of three independent experiments. (**: p<0.01, two-way ANOVA test). (D). […] Total Ub conjugates, K48-linked conjugates, and K63-linked conjugates were determined by Western blot, and their intensities were quantitated and normalized to that of β-actin and then to time 0 in each group. Data were mean±SD of three independent experiments. (**: p<0.01, Student's t-test). (E). […] Total Ub conjugates, K48-linked conjugates, and K63-linked conjugates were determined by Western blot, and their intensities were quantitated and normalized to that of β-actin and then to control in each group. Data were mean±SD of three independent experiments. (**: p<0.01, Student's t-test). (F). HEK293 cells were transfected with empty vector (Ctrl) or constitutively-active EGFR (encoding the T790M/L858R mutation) and treated with AG-1478. Total Ub conjugates, K48-linked conjugates, and K63-linked conjugates were determined by Western blot, and their intensities were quantitated and normalized to that of β-actin and then to time 0 in each group. Data were mean±SD of three independent experiments. (**: p<0.01, Student's t-test).
FIG. 4. EGF treatment raises the cellular content of Ub conjugates independent of EGFR ubiquitination and new protein synthesis. (A-D). […] Total Ub conjugates (A), K48-linked conjugates (B), and K63-linked conjugates were determined by Western Blot, and their intensities were quantitated and normalized to that of β-actin and then to control at time 0 in each group (D). Data were mean±SD of three independent experiments. (**: p<0.01, Student's t-test). (E). […] At different time points, cells were harvested, and radiolabeled protein remaining in the cell was measured. […] Cells were treated as illustrated in (A), and the radioactivity of remaining in cells was measured. […] The levels of Ub conjugates and β-actin were determined by Western blot (C) and quantitated (D). […]
To assess protein degradation, cells were starved for 30 minutes with methionine-free DMEM and pulse labelled for 16-24 hours with 0.5 mL of medium containing 0.1 mCi of ^35S-Met. […] After washing in cold PBS, cells were treated in chase medium for various times, and the remaining radioactivity in cells was measured as described elsewhere (Taelman et al., Cell, 143:1136-1148 (2010)). […]

For assay [2], the system named is MDA-MB-468 cells. Description: Immunoblot of Ub Y59 phosphorylation with anti-pY59 antibody. The format is cell-based, human. As to conditions: 20 ng EGF, time dependent; FIG. 7D. How it is done: FIG. 7. EGFR phosphorylates ubiquitin. (A). An in vitro kinase assay was performed at 30° C. for 1 hour in the presence of EGFR and different tetra-Ub chain or free Ub. The gels were subjected to western blot with anti-phosphor-tyrosine antibody (upper panel) or Coomassie brilliant blue (CBB) staining (lower panel). (B). Lysates from EGF treated cells was trypsinized and subjected to liquid chromatography tandem mass spectrometry (LC-MS/MS) analysis. (C). […] Absolute quantification of […] and TLSD(pY)[…] from control of EGF treated cells were quantified by Parallel Reaction Monitoring. Data were mean±SD of three independent experiments. (**: p<0.01, Student's t-test). […] Cell lysates were blotted with the anti-pY59 antibody. (E). […] Cell lysates were blotted with antibodies against pY59 and β-actin. (F). WT Ub- and Ub Y59F-replacement cells were serum starved and induced with DOX for 72 hours to replace endogenous Ub with WT Ub or Ub Y59F. […] Cell lysates were blotted with antibodies against pY59 and β-actin.
Cell lysates were prepared, and immunoprecipitation and immunoblotting were performed as described elsewhere (Deng et al., Mol. Cell, 61:614-624 (2016)). In brief, cells were lysed with NETN buffer (20 mM Tris-HCl, pH 8.0, 100 mM NaCl, 1 mM EDTA, 0.5% Nonidet P-40) containing 50 mM β-glycerophosphate, 10 mM NaF, and 1 mg/mL each of pepstatin A and aprotinin. […]
(Immunoblotting shows a protein as a band on a membrane.)

Assay [3] concerns MDA-MB-468 cells. Description: Western blot of total, K48-linked and K63-linked Ub conjugates after EGF. The class given is cell-based, human. How it is done: FIG. 3. EGFR enhances proteasomal degradation and promotes K48-linked ubiquitin conjugates. (A). MDA-MB-468 cells were serum starved for 24 hours and labeled with ^35S-Met for 24 hours. […] The rate of protein degradation was shown as the fraction of radiolabelled protein remaining over time. Data were mean±SD of three independent experiments. (**: p<0.01, two-way ANOVA test). (B and C). MDA-MB-468 cells were treated as in (A), except that 20 nM bortezomib (B) or 10 μM chloroquine (C) was present in the chase media. Data were mean±SD of three independent experiments. (**: p<0.01, two-way ANOVA test). (D). […] Total Ub conjugates, K48-linked conjugates, and K63-linked conjugates were determined by Western blot, and their intensities were quantitated and normalized to that of β-actin and then to time 0 in each group. Data were mean±SD of three independent experiments. (**: p<0.01, Student's t-test). (E). […] Total Ub conjugates, K48-linked conjugates, and K63-linked conjugates were determined by Western blot, and their intensities were quantitated and normalized to that of β-actin and then to control in each group. Data were mean±SD of three independent experiments. […] Total Ub conjugates, K48-linked conjugates, and K63-linked conjugates were determined by Western blot, and their intensities were quantitated and normalized to that of β-actin and then to time 0 in each group. […]

Assay [4] relates to NIH-3T3 cells. Description: Western blot of Ub conjugates after FGFb. The class given is cell-based, mouse. As for the experimental part: FIG. 6. FGFR activation increases cellular Ub conjugates. (A to D). NIH-3T3 cells were serum starved for 48 hours and then treated with 20 ng/mL FGFb and harvested at different time course. Total Ub conjugates (A), K48-linked conjugates (B), and K63-linked conjugates (C) were determined by Western blot, and their intensities were quantitated and normalized to that of β-actin and then to time 0 in each group (D). Data were mean±SD of three independent experiments. (**: p<0.01, Student's t-test). (E to H). HEK293 cells were transfected with empty vector (Ctrl), FGFR2 wide type, or FGFR2 kinase dead mutant (KR). Total Ub conjugates (E), K48-linked conjugates (F), and K63-linked conjugates (G) were determined by Western blot, and their intensities were quantitated and normalized to that of β-actin and then to control in each group (H). Data were mean±SD of three independent experiments. (**: p<0.01, Student's t-test). (I to L). NIH-3T3 cells were serum starved for 48 hours and then treated with vehicle, FGFb, or FGFb and FGF inhibitor TKI-258. Total Ub conjugates (I), K48-linked conjugates (J), and K63-linked conjugates (K) were determined by Western blot, and their intensities were quantitated and normalized to that of β-actin and then to control in each group (L). Data were mean±SD of three independent experiments. (**: p<0.01, Student's t-test).
Cell lysates were prepared, and immunoprecipitation and immunoblotting were performed as described elsewhere (Deng et al., Mol. Cell, 61:614-624 (2016)). In brief, cells were lysed with NETN buffer (20 mM Tris-HCl, pH 8.0, 100 mM NaCl, 1 mM EDTA, 0.5% Nonidet P-40) containing 50 mM β-glycerophosphate, 10 mM NaF, and 1 mg/mL each of pepstatin A and aprotinin. Whole cell lysates were centrifuged at 12000 rpm for 15 minutes. Whole cell lysates were incubated with 2 of antibody and protein A or protein G Sepharose beads (Amersham Biosciences) for 2 hours or overnight at 4° C. The immunocomplexes were then washed with NETN buffer for three times and separated by SDS-PAGE. Immunoblotting was performed following standard procedures. […]

Assay [5] has as its system NIH-3T3 cells transformed by EGFR L858R. Nature of the assay: Cell proliferation and MTS assay. The format is cell-based, mouse. As to conditions: EGFR L858R transformed cells compared to Ctrl cells; FIG. 14G. As for the experimental part: FIG. 14. […] (A-D). NIH-3T3 cells were infected with virus expressing EGFR DM mutant. Cells were harvested at different times after infection. Total Ub conjugates (A), K48-linked conjugates (B), and K63-linked conjugates (C) were determined by Western blot, and their intensities were quantitated and normalized to that of β-actin. Data were mean±SD of three independent experiments. (**: p<0.01, Student's t-test). (E) NIH-3T3 cells were infected with virus expressing EGFR DM mutant. Cells were harvested at different times after infection. Cell lysates were blotted with an anti-pY59 antibody. (F). NIH-3T3 stably expressing empty vector (Ctrl) or EGFR L858R mutant were serum starved for 48 hours and were labeled with ^35S Met for 24 hours in the absence of serum. […] At different time points, cells were harvested, and radiolabeled protein remaining in the cell was measured. The rate of protein degradation was shown as the fraction of radiolabeled protein remaining over time. […]
90 μL of cells (5×10^5 cells/mL) were plated into each well of 96-well plates (Corning, Lowell, Mass.; MacLean et al., Bioinformatics, 26:966-968 (2010)) and were treated with 10 μL of bortezomib at the final concentrations of 0, 0.0457, 0.1372, 0.4115, 1.2346, 3.7037, 11.1111, 33.3333 and 100 nM. […] Plates were then read in a microplate reader at absorbance of OD 490 (Tecan AG, Switzerland).

Take `C[C@@H]1C[C@@H]([C@H](O)CC2CC(=O)NC(=O)C2)C(=O)[C@@H](C)C1` [cycloheximide]: the proteasomal proteolysis result in assay [1] (100 μg/mL cycloheximide by itself, chloroquine in chase, FIG. 4G) is listed as “reduced”.
Turning to “EGF: growth factor used to activate EGFR (NSDSECPLSHDGYCLHDGVCMYIEALDKYACNCVVGYIGERCQYRDLKWWELR; Epidermal growth factor; UniProt P01133 971-1023, looked up)”, the “phosphorylation of Ub” value in assay [2] was “dramatic increase”. Moreover, in assay [3] (20 ng EGF, time dependent, FIG. 3D), the cellular ubiquitin conjugates entry is on record as “significantly higher”. Moreover, in assay [1] (EGF in chase medium, FIG. 3A), the “rate of protein degradation” value is “decrease”. In addition, the lysosome-dependent degradation result in assay [1] (EGF, in the presence of 20 nM bortezomib, FIG. 3B) is “inhibited”. Further, in assay [1] (EGF, in the presence of 10 μM chloroquine, FIG. 3C), the proteasome-mediated proteolysis result is listed as “increased dramatically”.
Turning to `CC(O)C(=O)O.CN1CCN(c2ccc3nc(-c4c(N)c5c(F)cccc5[nH]c4=O)[nH]c3c2)CC1` [TKI-258, Dovitinib (TKI 258)], the “effect on increase in Ub conjugates induced by FGFb” value in assay [4] (FGFb and TKI-258, FIGS. 6I-L) was “blocked”.
Take `CC(C)C[C@H](NC(=O)[C@H](Cc1ccccc1)NC(=O)c1cnccn1)B(O)O` [bortezomib]: in assay [5], the bortezomib sensitivity entry was “much higher”.
For “FGFb: FGF basic, growth factor used to activate FGFR”, the “increase in total content of ubiquitinated proteins and K48-linked Ub conjugates” value in assay [4] (20 ng/mL FGFb for 20 minutes, FIGS. 6A-D) was determined as 50%. Moreover, the “treatment time to maximal increase in Ub conjugates” value in assay [4] (20 ng/mL FGFb, FIGS. 6A-D) turned out to be 40 min.
In the case of `N#CC(=C(/N)Sc1ccccc1N)/C(C#N)=C(\N)Sc1ccccc1N` [U0126], the “effect on stimulation of Ub chain assembly by EGF” value in assay [3] (pretreated 12 hours before EGF treatment, FIGS. 5B-E) is on record as “did not affect”.
